Assay results: patent US10278971B2, “Fluorocyclopentenylcytosine methods of use” (Rexahn Pharmaceuticals, Inc., priority 2015, dated 2019)

Assays:
[1] = Open-label dose-ranging study: pharmacokinetics, safety and tolerability of oral doses; type: in vivo, human; conditions: for AUC(0-t): AUC0-24
Experimental: In an open-label, dose-ranging study, the pharmacokinetics (PK) of RX-3117 at various oral doses was evaluated. Subjects with advanced malignant tumors were administered capsules containing RX-3117 at daily doses of 30 mg (N=1), 60 mg (N=1), 100 mg (N=3), 150 mg (N=3), 200 mg (N=3), 500 mg (N=3), 1000 mg (N=3), 1500 mg (N=4), and 2000 mg (N=5 to date) 3 times a week (TIWK) for 3 weeks with 1 week off during each 4 week cycle. Based on the continued safety profile, and to enhance weekly RX-3117 exposure, more frequent dosing was also implemented. In addition to the TIWK dosing scheme discussed above, subjects also received 500 mg and 700 mg 5 times a week, and 500 mg for 7 times a week for 3 weeks with 1 week off during each 4 week cycle. Dose escalation began with an accelerated design treating 1 subject per dose (Simon et al., J Natl. Cancer Inst., 89(15):1138-47 (1997) followed by a standard 3+3 design using a modified Fibonacci sequence after the occurrence of a single related Grade 2 or greater adverse event. Table 3 summarizes the dosing schedule.
The efficacy, safety and tolerability of RX-3117 at various doses and frequencies were evaluated (see Example 4, above). Subjects with advanced malignant tumors were administered capsules containing RX-3117 at various doses, from TIWK to 7 times per week for 3 weeks with 1 week off during each 4-week cycle. Dose escalation begins with an accelerated design treating 1 subject per dose (Simon et al., J. Natl. Cancer Inst., 89(15):1138-47 (1997) followed by a standard 3+3 design using a modified Fibonacci sequence after the occurrence of a single related Grade 2 or greater adverse event. Table 4 (above) summarizes the dosing schedule.

SW1573/G = conditions: as reported in Peters et al. 2013; cited from earlier work

SMILES: Nc1ccn([C@@H]2C(F)=C(CO)[C@@H](O)[C@H]2O)c(=O)n1 [RX-3117, 4-amino-1-((1S,4R,5S)-2-fluoro-4,5-dihydroxy-3-hydroxymethyl-cyclopent-2-enyl)-1H-pyrimidin-2-one]
- maximum tolerated dose (MTD) ([1]; 5 days per week, three weeks with 1 week off per 4-week cycle): 700 mg daily
- maximal tolerated dose ([1]; Phase I clinical study, as stated in Example 7): higher than 2,000 mg/day
- apparent terminal T1/2, mean values ([1]; human, in vivo): 12.3 to 20.2 h
- dose limiting toxicities ([1]; human, in vivo): Grade 3 anemia, thrombocytopenia
- share of AUC0-t (0-24 hours) observed in the first 8 hours ([1]; human, in vivo): about half
- share of AUC observed by 24 hours ([1]; human, in vivo): over 80%
- half-life ([1]; human, in vivo, apparent terminal T1/2, mean values): 11.6 to 16.7 h
- Tmax ([1]; human, in vivo, po, 30 mg, Tmax): 2 h
- AUC0-24 ([1]; human, in vivo, po, 60 mg): 1164 ng·h/mL
- Cmax ([1]; human, in vivo, po, 60 mg): 139 ng/mL
- T1/2 ([1]; human, in vivo, po, 60 mg): 16.2 h
- AUC(0-t) ([1]; human, in vivo, po, 60 mg): 1570 ng·h/mL
- Cmax ([1]; human, in vivo, po, 60 mg, Cmax): 113 ng/mL
- half-life ([1]; human, in vivo, po, 60 mg, T1/2): 15.7 h
- Tmax ([1]; human, in vivo, po, 60 mg, Tmax): 4 h
- AUC0-24 ([1]; human, in vivo, po, 100 mg): 2714 ng·h/mL
- Cmax ([1]; human, in vivo, po, 100 mg): 357 ng/mL
- T1/2 ([1]; human, in vivo, po, 100 mg): 15.4 h
- AUC(0-t) ([1]; human, in vivo, po, 100 mg): 3290 ng·h/mL
- Cmax ([1]; human, in vivo, po, 100 mg, Cmax): 460 ng/mL
- half-life ([1]; human, in vivo, po, 100 mg, T1/2): 20.2 h
- Tmax ([1]; human, in vivo, po, 100 mg, Tmax): 2 h
- AUC0-24 ([1]; human, in vivo, po, 150 mg): 2437 ng·h/mL
- Cmax ([1]; human, in vivo, po, 150 mg): 360 ng/mL
- T1/2 ([1]; human, in vivo, po, 150 mg): 15.1 h
- AUC(0-t) ([1]; human, in vivo, po, 150 mg): 3550 ng·h/mL
- Cmax ([1]; human, in vivo, po, 150 mg, Cmax): 511 ng/mL
- half-life ([1]; human, in vivo, po, 150 mg, T1/2): 13.9 h
- Tmax ([1]; human, in vivo, po, 150 mg, Tmax): 3 h
- AUC0-24 ([1]; human, in vivo, po, 200 mg): 4574 ng·h/mL
- Cmax ([1]; human, in vivo, po, 200 mg): 643 ng/mL
- T1/2 ([1]; human, in vivo, po, 200 mg): 16.2 h
- AUC(0-t) ([1]; human, in vivo, po, 200 mg): 4720 ng·h/mL
- Cmax ([1]; human, in vivo, po, 200 mg, Cmax): 637 ng/mL
- half-life ([1]; human, in vivo, po, 200 mg, T1/2): 13.3 h
- Tmax ([1]; human, in vivo, po, 200 mg, Tmax): 2 h
- Tmax ([1]; human, in vivo, po, 500 mg): 2.5 h
- AUC(0-t) ([1]; human, in vivo, po, 500 mg): 7920 ng·h/mL
- Cmax ([1]; human, in vivo, po, 500 mg, Cmax): 1100 ng/mL
- Tmax ([1]; human, in vivo, po, 500 mg, Tmax): 2 h
- AUC0-24 ([1]; human, in vivo, po, 700 mg): 6321 ng·h/mL
- Cmax ([1]; human, in vivo, po, 700 mg): 674 ng/mL
- T1/2 ([1]; human, in vivo, po, 700 mg): 11.2 h
- AUC(0-t) ([1]; human, in vivo, po, 700 mg): 8660 ng·h/mL
- Cmax ([1]; human, in vivo, po, 700 mg, Cmax): 989 ng/mL
- half-life ([1]; human, in vivo, po, 700 mg, T1/2): 9.05 h
- Tmax ([1]; human, in vivo, po, 700 mg, Tmax): 3 h
- AUC0-24 ([1]; human, in vivo, po, 1000 mg): 9753 ng·h/mL
- Cmax ([1]; human, in vivo, po, 1000 mg): 1210 ng/mL
- T1/2 ([1]; human, in vivo, po, 1000 mg): 14.9 h
- AUC(0-t) ([1]; human, in vivo, po, 1000 mg): 12200 ng·h/mL
- Cmax ([1]; human, in vivo, po, 1000 mg, Cmax): 1640 ng/mL
- half-life ([1]; human, in vivo, po, 1000 mg, T1/2): 11.6 h
- Tmax ([1]; human, in vivo, po, 1000 mg, Tmax): 2 h
- Cmax ([1]; human, in vivo, po, 1500 mg): 883 ng/mL
- T1/2 ([1]; human, in vivo, po, 1500 mg): 13.8 h
- Cmax ([1]; human, in vivo, po, 1500 mg, Cmax): 1620 ng/mL
- half-life ([1]; human, in vivo, po, 1500 mg, T1/2): 11.8 h
- Tmax ([1]; human, in vivo, po, 1500 mg, Tmax): 3 h
- AUC0-24 ([1]; human, in vivo, po, 2000 mg): 17403 ng·h/mL
- Cmax ([1]; human, in vivo, po, 2000 mg): 1703 ng/mL
- T1/2 ([1]; human, in vivo, po, 2000 mg): 12.1 h
- AUC(0-t) ([1]; human, in vivo, po, 2000 mg): 17000 ng·h/mL
- Cmax ([1]; human, in vivo, po, 2000 mg, Cmax): 1860 ng/mL
- half-life ([1]; human, in vivo, po, 2000 mg, T1/2): 13.3 h
- Tmax ([1]; human, in vivo, po, 2000 mg, Tmax): 3 h
- Tmax ([1]; human, in vivo, po, median Tmax): 2 to 3 h
- accumulation ([1]; in vivo): generally minimal
- most frequent related adverse events ([1]; in vivo): moderate to severe anemia, mild to moderate fatigue and nausea, mild diarrhea, vomiting, and anorexia
- most frequently observed adverse events ([1]; in vivo): mild to moderate fatigue and nausea, mild diarrhea, mild vomiting, mild anorexia and moderate dehydration
- IC50 (SW1573/G): 7.3 µM
